Laboratory results as given in paper PMC7416039 (Pharmacology Research & Perspectives, 2020).

What was measured:
[1] = Metabolism of secnidazole in human plasma in vitro; format: in vitro ADME
[2] = cited from earlier work
[3] = tested on: cDNA‐expressed human CYP enzymes (Supersomes); test: Metabolism of 1 μmol/L secnidazole by cDNA-expressed human CYP enzymes; format: in vitro ADME; settings: 0-30 min
CYP2C19 [4] = molecular target: T1, CYP2C19 (Homo sapiens, UniProt P33261); test: Time-dependent inhibition of CYP isoforms in HLM
T1 sequence (P33261 whole entry, canonical isoform): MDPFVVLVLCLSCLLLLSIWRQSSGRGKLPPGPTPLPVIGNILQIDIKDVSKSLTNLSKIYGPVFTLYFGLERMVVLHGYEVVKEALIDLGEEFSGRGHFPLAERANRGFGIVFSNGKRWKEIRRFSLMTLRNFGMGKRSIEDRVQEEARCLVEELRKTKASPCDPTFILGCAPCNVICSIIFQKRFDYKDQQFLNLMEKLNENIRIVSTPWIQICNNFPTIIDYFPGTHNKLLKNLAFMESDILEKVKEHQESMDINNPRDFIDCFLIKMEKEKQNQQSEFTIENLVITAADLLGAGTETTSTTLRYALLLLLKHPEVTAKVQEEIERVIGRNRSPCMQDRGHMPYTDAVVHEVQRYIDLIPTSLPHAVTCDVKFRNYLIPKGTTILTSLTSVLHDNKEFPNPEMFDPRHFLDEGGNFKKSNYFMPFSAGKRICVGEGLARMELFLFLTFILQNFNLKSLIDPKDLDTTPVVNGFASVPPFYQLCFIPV

CYP2D6 = CYP2D6 (Homo sapiens, UniProt P10635); test: Time-dependent inhibition of CYP isoforms in HLM
Chain of CYP2D6 (P10635 whole entry, canonical isoform): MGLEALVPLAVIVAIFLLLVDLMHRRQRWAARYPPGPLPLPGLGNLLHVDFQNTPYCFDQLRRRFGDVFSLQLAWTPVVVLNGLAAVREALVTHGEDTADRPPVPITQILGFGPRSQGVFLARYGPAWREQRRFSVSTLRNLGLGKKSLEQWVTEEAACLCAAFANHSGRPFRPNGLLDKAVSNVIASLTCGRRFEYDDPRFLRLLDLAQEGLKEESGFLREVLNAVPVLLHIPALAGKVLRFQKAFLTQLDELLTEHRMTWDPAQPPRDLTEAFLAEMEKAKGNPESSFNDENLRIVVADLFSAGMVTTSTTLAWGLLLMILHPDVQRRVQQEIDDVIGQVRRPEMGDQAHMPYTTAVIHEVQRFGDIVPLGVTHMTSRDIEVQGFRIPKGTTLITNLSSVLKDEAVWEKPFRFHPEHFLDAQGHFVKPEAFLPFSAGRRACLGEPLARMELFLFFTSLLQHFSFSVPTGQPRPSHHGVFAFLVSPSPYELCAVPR

CYP2C19 [5] = molecular target: T1, CYP2C19; test: Direct inhibition of CYP isoforms in HLM
CYP2B6 = molecular target: T2, CYP2B6 (Homo sapiens, UniProt P20813); test: Time-dependent inhibition of CYP isoforms in HLM
T2 sequence (P20813 1-491): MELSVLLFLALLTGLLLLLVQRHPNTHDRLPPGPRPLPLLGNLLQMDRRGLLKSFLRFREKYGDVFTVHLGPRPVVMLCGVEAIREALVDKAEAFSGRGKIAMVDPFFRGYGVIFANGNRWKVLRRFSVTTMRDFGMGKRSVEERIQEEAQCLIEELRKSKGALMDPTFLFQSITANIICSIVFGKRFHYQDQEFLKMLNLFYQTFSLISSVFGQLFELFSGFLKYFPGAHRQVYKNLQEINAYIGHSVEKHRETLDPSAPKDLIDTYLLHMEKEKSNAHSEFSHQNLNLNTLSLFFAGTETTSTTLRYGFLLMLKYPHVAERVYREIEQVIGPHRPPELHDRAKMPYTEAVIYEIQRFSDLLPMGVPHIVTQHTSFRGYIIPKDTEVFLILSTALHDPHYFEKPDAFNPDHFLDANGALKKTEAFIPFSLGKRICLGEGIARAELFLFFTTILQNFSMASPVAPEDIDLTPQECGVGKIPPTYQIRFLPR

CYP2A6 [6] = molecular target: T3, CYP2A6 (Homo sapiens, UniProt P11509); test: Time-dependent inhibition of CYP isoforms in HLM
T3 sequence (P11509 1-494): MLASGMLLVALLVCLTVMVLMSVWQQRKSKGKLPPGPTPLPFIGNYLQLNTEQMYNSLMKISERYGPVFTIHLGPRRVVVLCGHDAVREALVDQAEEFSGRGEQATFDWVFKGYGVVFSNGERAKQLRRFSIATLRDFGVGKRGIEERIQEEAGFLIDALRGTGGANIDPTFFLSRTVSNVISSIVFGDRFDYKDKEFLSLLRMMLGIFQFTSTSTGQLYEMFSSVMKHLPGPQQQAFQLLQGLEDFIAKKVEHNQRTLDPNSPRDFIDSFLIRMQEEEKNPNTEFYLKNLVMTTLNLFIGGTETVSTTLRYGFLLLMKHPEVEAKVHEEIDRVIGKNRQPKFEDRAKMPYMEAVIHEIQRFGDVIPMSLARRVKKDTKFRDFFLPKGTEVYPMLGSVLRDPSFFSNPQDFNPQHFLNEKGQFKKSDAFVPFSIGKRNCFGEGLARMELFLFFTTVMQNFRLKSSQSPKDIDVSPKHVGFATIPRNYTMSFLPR

CYP2E1 [7] = molecular target: T4, CYP2E1 (Homo sapiens, UniProt P05181); test: Time-dependent inhibition of CYP isoforms in HLM
T4 sequence (P05181 whole entry, canonical isoform): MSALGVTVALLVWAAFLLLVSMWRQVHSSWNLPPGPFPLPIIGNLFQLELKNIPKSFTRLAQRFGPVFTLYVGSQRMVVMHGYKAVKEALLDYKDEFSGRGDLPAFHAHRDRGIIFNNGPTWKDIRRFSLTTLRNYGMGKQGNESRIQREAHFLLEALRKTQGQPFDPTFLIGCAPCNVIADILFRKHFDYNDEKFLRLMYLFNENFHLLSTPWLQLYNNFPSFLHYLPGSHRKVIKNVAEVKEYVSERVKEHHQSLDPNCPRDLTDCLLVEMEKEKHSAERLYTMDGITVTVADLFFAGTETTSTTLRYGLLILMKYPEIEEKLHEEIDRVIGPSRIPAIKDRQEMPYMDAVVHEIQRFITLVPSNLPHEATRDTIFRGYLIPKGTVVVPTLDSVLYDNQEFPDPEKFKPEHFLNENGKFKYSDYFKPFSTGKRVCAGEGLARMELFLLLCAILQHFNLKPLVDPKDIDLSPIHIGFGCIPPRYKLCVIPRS

CYP2E1 [8] = molecular target: T4, CYP2E1; test: Direct inhibition of CYP isoforms in HLM
[9] = molecular target: T5, human aldehyde dehydrogenase 2 (ALDH2) (Homo sapiens, UniProt P05091); test: Time-dependent inhibition of ALDH2; format: biochemical; settings: for Time-dependent inhibition of ALDH2 (residual ALDH2 catalytic activity): 10 μmol/L secnidazole
T5 sequence (P05091 18-517): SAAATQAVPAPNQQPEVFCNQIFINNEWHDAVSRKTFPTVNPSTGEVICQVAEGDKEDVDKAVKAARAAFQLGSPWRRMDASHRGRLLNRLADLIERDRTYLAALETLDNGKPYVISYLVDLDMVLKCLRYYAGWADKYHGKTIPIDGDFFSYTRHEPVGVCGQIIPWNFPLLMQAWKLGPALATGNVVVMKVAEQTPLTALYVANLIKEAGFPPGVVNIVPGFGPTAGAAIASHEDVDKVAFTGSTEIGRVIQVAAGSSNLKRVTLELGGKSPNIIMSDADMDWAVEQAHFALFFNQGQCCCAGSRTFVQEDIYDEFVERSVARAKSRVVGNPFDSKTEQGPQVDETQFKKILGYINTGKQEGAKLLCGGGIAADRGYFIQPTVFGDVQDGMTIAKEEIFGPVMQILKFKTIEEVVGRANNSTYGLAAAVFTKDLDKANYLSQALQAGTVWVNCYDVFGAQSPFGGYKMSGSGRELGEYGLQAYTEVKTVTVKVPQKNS

CYP2A6 [10] = molecular target: T3, CYP2A6; test: Direct inhibition of CYP isoforms in HLM
CYP1A2 = molecular target: T6, CYP1A2 (Homo sapiens, UniProt P05177); test: Time-dependent inhibition of CYP isoforms in HLM
T6 sequence (P05177 1-516): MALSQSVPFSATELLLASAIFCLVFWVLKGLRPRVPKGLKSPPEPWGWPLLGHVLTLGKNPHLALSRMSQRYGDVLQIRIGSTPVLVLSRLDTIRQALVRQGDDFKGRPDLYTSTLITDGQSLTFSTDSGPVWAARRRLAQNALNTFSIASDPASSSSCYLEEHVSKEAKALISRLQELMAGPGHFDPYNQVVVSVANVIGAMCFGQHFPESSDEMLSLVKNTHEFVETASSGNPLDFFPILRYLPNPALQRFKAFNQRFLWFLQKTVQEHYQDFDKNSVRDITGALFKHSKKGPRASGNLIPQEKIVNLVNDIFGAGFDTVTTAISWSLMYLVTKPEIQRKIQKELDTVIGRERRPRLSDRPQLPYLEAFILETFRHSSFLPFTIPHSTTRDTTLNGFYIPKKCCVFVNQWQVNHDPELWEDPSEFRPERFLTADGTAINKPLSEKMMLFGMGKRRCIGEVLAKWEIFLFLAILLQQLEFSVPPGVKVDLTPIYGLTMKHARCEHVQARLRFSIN

Structure (SMILES): Cc1ncc([N+](=O)[O-])n1CC(C)O (stereo not shown) [secnidazole]
- metabolism in human plasma in vitro [1]: no evidence of secnidazole metabolism
- cumulative urinary excretion of free and conjugated secnidazole [2]: approximately 50%
- metabolism in cDNA‐expressed enzymes [3]: did not demonstrate conclusive evidence of any metabolism
- IC50 (CYP2C19 [4]): > 1000 µM
- IC50 (CYP2D6): > 500 µM
- IC50 (CYP2C19 [5]): 3870 µM
- IC50 (CYP2B6): > 500 µM
- IC50 (CYP2A6 [6]): > 500 µM
- IC50 (CYP2E1 [7]): > 500 µM
- IC50 (CYP2E1 [8]): > 5000 µM
- Time-dependent inhibition of ALDH2 (residual ALDH2 catalytic activity) ([9]; preincubation time 0.5): 104
- Time-dependent inhibition of ALDH2 (residual ALDH2 catalytic activity) ([9]; preincubation time 1): 103
- Time-dependent inhibition of ALDH2 (residual ALDH2 catalytic activity) ([9]; preincubation time 2): 101
- Time-dependent inhibition of ALDH2 (residual ALDH2 catalytic activity) ([9]; preincubation time 3): 104
- Time-dependent inhibition of ALDH2 (residual ALDH2 catalytic activity) ([9]; preincubation time 4): 101
- Time-dependent inhibition of ALDH2 (residual ALDH2 catalytic activity) ([9]; preincubation time 8): 110
- Time-dependent inhibition of ALDH2 (residual ALDH2 catalytic activity) ([9]; preincubation time 16): 113
- Time-dependent inhibition of ALDH2 (residual ALDH2 catalytic activity) ([9]; preincubation time 24): 131
- Time-dependent inhibition of ALDH2 (in words) ([9]; preincubated with ALDH2 enzyme and NAD+ from 1 to 24 minutes, secnidazole at 10 or 100 μmol/L): little or no time‐dependent inhibition
- IC50 (CYP2A6 [10]): > 5000 µM
- direct inhibition (in words) (CYP2A6 [10]; HLM, CYP2A6): some clear concentration‐dependent inhibition at higher concentration
- IC50 (CYP1A2): > 500 µM
